A word on the IC50: it is the point on the concentration scale where inhibition reaches its midpoint. Low readings indicate higher potency, high ones lower potency.

The structures appear in SMILES notation.

One compound from ChEMBL document CHEMBL4725424, “The Resurrection of Phenotypic Drug Discovery” (ACS Med Chem Lett, 2020) can be followed below.

One experiment is filed under the species Homo sapiens. Nature of the experiment: Selectivity index, ratio of IC50 for inhibition of CDK4/cyclinD (unknown origin) to IC50 for inhibition of CDK9/cyclinT1 (unknown origin).
The target in the next experiment is CDK2/Cyclin A2 (Homo sapiens, UniProt P24941). Nature of the experiment: Inhibition of CDK2/cyclinA (unknown origin). Format: protein-complex assay.
The target in experiment [1] is T1, Cyclin-dependent kinase 5/CDK5 activator 1 (Homo sapiens, UniProt Q00535). The experiment in a line: Inhibition of CDK5/p35 (unknown origin). Type of experiment: protein-complex assay.
Another experiment deals with CDK9/cyclin T1 (Homo sapiens, UniProt P50750). Nature of the experiment: Inhibition of CDK9/cyclinT1 (unknown origin). Format: protein-complex assay.
A further experiment deals with CDK7/Cyclin H/MNAT1 (Homo sapiens, UniProt P50613). Nature of the experiment: Inhibition of CDK7/cyclinH/MAT1 (unknown origin). Type of experiment: protein-complex assay.
The nature of experiment [2]: Inhibition of CDK8/cyclinD3 (unknown origin). Set-up: species or system Homo sapiens.
The target in experiment [3] is T1, Cyclin-dependent kinase 5/CDK5 activator 1. The experiment in a line: Inhibition of CDK5/p25 (unknown origin). Type of experiment: protein-complex assay.
Experiment [4] has as its target Cyclin-dependent kinase 1/cyclin B1 (Homo sapiens, UniProt P06493). Nature of the experiment: Inhibition of CDK1/cyclinB (unknown origin). Type of experiment: protein-complex assay.
The target of experiment [5] is Cyclin-dependent kinase 2/cyclin E1 (Homo sapiens, UniProt P24941). The experiment in a line: Inhibition of CDK2/cyclinE (unknown origin). Format: protein-complex assay.
Experiment [6] concerns the target Cyclin-dependent kinase 4/cyclin D1 (Homo sapiens, UniProt P11802). Nature of the experiment: Inhibition of CDK4/cyclinD (unknown origin). Format: protein-complex assay.
The next experiment addresses CDK3/Cyclin E (Homo sapiens, UniProt Q00526). Nature of the experiment: Inhibition of CDK3/cyclinE (unknown origin). Format: protein-complex assay.

T1 sequence (Q00535 whole entry): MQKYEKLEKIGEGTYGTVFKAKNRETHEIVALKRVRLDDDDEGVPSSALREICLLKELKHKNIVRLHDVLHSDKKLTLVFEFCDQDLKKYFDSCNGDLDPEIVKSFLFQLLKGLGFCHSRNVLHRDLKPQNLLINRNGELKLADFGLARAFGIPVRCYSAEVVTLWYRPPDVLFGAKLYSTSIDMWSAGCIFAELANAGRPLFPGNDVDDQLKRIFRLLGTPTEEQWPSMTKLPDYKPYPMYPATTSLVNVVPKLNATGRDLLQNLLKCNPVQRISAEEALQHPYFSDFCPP
T1 sequence (Q15078 whole entry, further chain): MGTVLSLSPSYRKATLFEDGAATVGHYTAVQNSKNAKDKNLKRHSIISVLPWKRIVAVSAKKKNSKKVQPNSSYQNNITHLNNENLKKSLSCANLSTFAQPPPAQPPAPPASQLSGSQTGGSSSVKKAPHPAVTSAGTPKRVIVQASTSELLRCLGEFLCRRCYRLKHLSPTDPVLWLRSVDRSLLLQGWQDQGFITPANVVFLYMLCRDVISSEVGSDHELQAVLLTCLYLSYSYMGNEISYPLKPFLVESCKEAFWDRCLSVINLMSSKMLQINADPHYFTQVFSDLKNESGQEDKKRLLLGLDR
Sequence of Cyclin-dependent kinase 1/cyclin B1 (P06493 whole entry): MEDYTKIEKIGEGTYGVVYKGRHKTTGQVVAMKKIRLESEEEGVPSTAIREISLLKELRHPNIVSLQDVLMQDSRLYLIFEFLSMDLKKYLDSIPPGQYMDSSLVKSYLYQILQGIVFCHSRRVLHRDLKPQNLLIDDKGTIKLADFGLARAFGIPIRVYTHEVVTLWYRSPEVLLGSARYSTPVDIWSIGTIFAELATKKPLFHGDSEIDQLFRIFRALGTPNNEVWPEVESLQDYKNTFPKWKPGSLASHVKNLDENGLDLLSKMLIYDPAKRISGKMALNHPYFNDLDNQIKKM
Sequence of Cyclin-dependent kinase 1/cyclin B1 (P14635 whole entry, further chain): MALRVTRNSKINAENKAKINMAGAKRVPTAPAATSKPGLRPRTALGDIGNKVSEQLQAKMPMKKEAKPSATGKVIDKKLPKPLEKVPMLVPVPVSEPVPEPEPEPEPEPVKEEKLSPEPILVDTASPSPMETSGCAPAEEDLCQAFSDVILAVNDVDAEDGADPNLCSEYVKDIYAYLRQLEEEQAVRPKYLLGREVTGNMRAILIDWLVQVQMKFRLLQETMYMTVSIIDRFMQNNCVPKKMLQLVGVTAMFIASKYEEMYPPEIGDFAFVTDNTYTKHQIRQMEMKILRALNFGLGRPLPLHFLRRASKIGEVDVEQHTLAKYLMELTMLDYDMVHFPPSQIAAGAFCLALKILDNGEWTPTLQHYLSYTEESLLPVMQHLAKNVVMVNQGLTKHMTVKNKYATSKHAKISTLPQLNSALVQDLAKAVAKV
Sequence of CDK9/cyclin T1 (O60563 whole entry): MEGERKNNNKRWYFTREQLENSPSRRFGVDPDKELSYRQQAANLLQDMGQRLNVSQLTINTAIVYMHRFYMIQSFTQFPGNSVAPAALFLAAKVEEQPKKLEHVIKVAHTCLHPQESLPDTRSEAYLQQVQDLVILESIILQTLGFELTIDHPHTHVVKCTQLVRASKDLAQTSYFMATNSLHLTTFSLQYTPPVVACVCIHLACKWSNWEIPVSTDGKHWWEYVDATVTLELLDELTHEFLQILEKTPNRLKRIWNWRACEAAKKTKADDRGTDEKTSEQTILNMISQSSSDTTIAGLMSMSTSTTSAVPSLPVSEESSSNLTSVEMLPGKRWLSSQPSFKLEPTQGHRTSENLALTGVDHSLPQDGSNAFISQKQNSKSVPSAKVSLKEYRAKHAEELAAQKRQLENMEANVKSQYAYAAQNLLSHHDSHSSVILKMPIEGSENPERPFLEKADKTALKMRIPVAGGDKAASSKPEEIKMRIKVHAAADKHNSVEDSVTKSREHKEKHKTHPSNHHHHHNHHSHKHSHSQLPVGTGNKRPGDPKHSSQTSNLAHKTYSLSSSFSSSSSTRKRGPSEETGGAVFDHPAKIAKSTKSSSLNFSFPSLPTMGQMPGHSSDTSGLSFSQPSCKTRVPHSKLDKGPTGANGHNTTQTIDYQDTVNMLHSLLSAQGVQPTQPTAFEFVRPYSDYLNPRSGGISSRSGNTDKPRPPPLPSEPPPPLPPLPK
Sequence of CDK9/cyclin T1 (P50750 whole entry): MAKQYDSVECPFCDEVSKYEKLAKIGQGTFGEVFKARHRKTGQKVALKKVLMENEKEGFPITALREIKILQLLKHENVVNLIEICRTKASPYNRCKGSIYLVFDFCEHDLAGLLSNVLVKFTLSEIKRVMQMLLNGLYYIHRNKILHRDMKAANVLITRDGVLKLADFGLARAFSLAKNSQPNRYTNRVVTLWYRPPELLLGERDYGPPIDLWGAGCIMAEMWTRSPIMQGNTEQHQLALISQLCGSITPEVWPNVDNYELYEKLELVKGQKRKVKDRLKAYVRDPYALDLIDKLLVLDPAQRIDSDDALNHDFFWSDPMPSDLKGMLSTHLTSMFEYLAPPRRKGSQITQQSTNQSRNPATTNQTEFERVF
Sequence of CDK3/Cyclin E (P24864 whole entry): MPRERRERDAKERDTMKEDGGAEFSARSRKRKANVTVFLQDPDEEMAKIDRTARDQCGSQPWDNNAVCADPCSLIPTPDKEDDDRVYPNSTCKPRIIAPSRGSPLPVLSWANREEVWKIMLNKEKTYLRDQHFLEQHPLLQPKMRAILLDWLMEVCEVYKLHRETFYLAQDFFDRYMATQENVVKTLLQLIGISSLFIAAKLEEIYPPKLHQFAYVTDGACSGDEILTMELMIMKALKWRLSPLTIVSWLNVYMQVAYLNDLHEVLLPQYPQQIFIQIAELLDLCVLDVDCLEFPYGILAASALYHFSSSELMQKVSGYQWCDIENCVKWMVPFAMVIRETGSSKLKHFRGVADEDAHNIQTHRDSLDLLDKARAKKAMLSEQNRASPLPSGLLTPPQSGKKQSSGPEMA
Sequence of CDK3/Cyclin E (Q00526 whole entry): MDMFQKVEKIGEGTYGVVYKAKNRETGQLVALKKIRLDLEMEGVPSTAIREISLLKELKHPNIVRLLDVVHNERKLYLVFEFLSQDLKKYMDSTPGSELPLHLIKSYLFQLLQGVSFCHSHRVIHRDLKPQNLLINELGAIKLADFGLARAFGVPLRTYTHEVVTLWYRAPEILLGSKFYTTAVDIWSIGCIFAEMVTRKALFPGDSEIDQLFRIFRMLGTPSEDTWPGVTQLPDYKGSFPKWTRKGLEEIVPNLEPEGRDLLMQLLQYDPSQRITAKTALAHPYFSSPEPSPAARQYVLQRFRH
Sequence of CDK7/Cyclin H/MNAT1 (P51946 whole entry): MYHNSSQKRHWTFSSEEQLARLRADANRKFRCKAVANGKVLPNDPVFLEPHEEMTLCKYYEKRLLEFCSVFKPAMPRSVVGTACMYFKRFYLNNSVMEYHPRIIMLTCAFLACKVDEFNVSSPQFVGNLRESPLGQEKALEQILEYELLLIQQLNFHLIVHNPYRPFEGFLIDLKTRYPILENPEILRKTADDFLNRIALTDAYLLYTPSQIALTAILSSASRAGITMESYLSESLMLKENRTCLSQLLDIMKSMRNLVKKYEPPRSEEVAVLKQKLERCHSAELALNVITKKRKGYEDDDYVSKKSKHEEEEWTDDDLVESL
Sequence of CDK7/Cyclin H/MNAT1 (P50613 whole entry): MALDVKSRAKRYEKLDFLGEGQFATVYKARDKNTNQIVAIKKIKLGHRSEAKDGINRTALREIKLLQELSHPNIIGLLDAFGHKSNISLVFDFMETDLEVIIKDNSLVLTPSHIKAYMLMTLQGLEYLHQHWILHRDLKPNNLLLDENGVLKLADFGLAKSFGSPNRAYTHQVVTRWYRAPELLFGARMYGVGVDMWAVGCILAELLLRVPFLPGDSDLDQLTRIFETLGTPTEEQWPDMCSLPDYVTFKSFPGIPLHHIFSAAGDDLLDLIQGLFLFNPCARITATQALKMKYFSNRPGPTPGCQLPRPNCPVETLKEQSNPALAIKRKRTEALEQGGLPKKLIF
Sequence of CDK7/Cyclin H/MNAT1 (P51948 whole entry, further chain): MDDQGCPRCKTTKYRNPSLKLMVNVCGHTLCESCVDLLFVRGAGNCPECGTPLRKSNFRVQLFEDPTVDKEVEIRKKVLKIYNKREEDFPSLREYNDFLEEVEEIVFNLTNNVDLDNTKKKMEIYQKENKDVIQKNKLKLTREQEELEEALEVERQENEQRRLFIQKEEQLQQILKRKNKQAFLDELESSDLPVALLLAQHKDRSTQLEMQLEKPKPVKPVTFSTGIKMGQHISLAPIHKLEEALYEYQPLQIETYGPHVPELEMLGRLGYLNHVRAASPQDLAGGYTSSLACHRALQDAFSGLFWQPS
Sequence of Cyclin-dependent kinase 4/cyclin D1 (P11802 whole entry): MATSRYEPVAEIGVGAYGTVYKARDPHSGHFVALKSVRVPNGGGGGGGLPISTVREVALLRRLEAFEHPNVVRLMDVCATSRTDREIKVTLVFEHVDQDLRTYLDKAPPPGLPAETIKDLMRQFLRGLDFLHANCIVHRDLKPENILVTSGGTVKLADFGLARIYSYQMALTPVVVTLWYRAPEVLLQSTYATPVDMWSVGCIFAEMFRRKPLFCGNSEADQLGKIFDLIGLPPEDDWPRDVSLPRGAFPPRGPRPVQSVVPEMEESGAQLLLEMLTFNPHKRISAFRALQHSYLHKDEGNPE
Sequence of Cyclin-dependent kinase 4/cyclin D1 (P24385 whole entry, further chain): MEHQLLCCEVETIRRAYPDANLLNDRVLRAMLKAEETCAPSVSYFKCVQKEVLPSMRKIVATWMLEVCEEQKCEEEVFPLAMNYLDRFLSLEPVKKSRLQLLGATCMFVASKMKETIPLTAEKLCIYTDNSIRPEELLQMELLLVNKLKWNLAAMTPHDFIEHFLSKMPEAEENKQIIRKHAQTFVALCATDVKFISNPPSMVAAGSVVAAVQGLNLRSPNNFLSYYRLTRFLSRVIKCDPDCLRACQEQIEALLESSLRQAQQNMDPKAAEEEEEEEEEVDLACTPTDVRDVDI

`Nc1nc(N[C@H]2C[C@@H]3CC[C@H]2C3)sc1C(=O)c1ccccc1[N+](=O)[O-]`: in the experiment filed under Homo sapiens, the Ratio IC50 was 22.5. Further, the IC50 worked out at 233 nM against CDK2/Cyclin A2; 159 nM in [1]; 5 nM against CDK9/cyclin T1; 555 nM against CDK7/Cyclin H/MNAT1; 712 nM in experiment [2]; 186 nM in [3]. In addition, the IC50 was determined as 138 nM in [4], 367 nM in experiment [5], 112 nM in experiment [6] and 399 nM against CDK3/Cyclin E.
